Test results as given in PubChem BioAssay (NCI).
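A five-concentration, 48-hour dose response in 96-well plates underlies each endpoint, interpolated linearly between surrounding concentrations. At the TGI there is no net growth.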

system: HL-60(TB) leukemia; assay: DTP human tumour cell line panel, 48 h

SMILES	TGI [µM]
COC1=CC(=Nc2c(Cl)cc(Cl)cc2OC(=O)c2ccc([N+](=O)[O-])cc2)C=C(OC)C1=O	12.1
CCOC(=O)C(C)c1c(C(=O)c2ccc(C)nc2)c2ccccc2n1C (stereo not drawn)	> 100

system: HOP-62 NSCLC; assay: DTP human tumour cell line panel, 48 h

SMILES	TGI [µM]
O=C(Cc1nc2ccccc2o1)C(=O)Nc1ccccc1C(F)(F)F	> 100
CN(C)CCNc1ccc2nnn3c4ccccc4c(=O)c1c23	14.2
COC1=CC(=Nc2c(Cl)cc(Cl)cc2OC(=O)c2ccc([N+](=O)[O-])cc2)C=C(OC)C1=O	36.2
CCOC(=O)C(C)c1c(C(=O)c2ccc(C)nc2)c2ccccc2n1C (stereo not drawn)	> 100

system: HOP-92 NSCLC; assay: DTP human tumour cell line panel, 48 h

SMILES	TGI [µM]
O=C(Cc1nc2ccccc2o1)C(=O)Nc1ccccc1C(F)(F)F	> 100
CN(C)CCNc1ccc2nnn3c4ccccc4c(=O)c1c23	9.6
COC1=CC(=Nc2c(Cl)cc(Cl)cc2OC(=O)c2ccc([N+](=O)[O-])cc2)C=C(OC)C1=O	14.8
CCOC(=O)C(C)c1c(C(=O)c2ccc(C)nc2)c2ccccc2n1C (stereo not drawn)	> 100

system: HS 578T breast; assay: DTP human tumour cell line panel, 48 h

SMILES	TGI [µM]
CN(C)CCNc1ccc2nnn3c4ccccc4c(=O)c1c23	9.8

system: HT29 colon; assay: DTP human tumour cell line panel, 48 h

SMILES	TGI [µM]
O=C(Cc1nc2ccccc2o1)C(=O)Nc1ccccc1C(F)(F)F	> 100
CN(C)CCNc1ccc2nnn3c4ccccc4c(=O)c1c23	11
COC1=CC(=Nc2c(Cl)cc(Cl)cc2OC(=O)c2ccc([N+](=O)[O-])cc2)C=C(OC)C1=O	33.5
CCOC(=O)C(C)c1c(C(=O)c2ccc(C)nc2)c2ccccc2n1C (stereo not drawn)	> 100

system: IGROV1 ovarian; assay: DTP human tumour cell line panel, 48 h

SMILES	TGI [µM]
O=C(Cc1nc2ccccc2o1)C(=O)Nc1ccccc1C(F)(F)F	> 100
CN(C)CCNc1ccc2nnn3c4ccccc4c(=O)c1c23	26.5
COC1=CC(=Nc2c(Cl)cc(Cl)cc2OC(=O)c2ccc([N+](=O)[O-])cc2)C=C(OC)C1=O	31.2
CCOC(=O)C(C)c1c(C(=O)c2ccc(C)nc2)c2ccccc2n1C (stereo not drawn)	> 100

system: K-562 leukemia; assay: DTP human tumour cell line panel, 48 h

SMILES	TGI [µM]
O=C(Cc1nc2ccccc2o1)C(=O)Nc1ccccc1C(F)(F)F	> 100
CN(C)CCNc1ccc2nnn3c4ccccc4c(=O)c1c23	18.9
COC1=CC(=Nc2c(Cl)cc(Cl)cc2OC(=O)c2ccc([N+](=O)[O-])cc2)C=C(OC)C1=O	27
CCOC(=O)C(C)c1c(C(=O)c2ccc(C)nc2)c2ccccc2n1C (stereo not drawn)	> 100

system: KM12 colon; assay: DTP human tumour cell line panel, 48 h

SMILES	TGI [µM]
O=C(Cc1nc2ccccc2o1)C(=O)Nc1ccccc1C(F)(F)F	> 100
CN(C)CCNc1ccc2nnn3c4ccccc4c(=O)c1c23	13.9
COC1=CC(=Nc2c(Cl)cc(Cl)cc2OC(=O)c2ccc([N+](=O)[O-])cc2)C=C(OC)C1=O	29.4
CCOC(=O)C(C)c1c(C(=O)c2ccc(C)nc2)c2ccccc2n1C (stereo not drawn)	> 100

system: KM20L2 colon; assay: DTP human tumour cell line panel, 48 h

SMILES	TGI [µM]
O=C(Cc1nc2ccccc2o1)C(=O)Nc1ccccc1C(F)(F)F	> 100
CN(C)CCNc1ccc2nnn3c4ccccc4c(=O)c1c23	11.6
COC1=CC(=Nc2c(Cl)cc(Cl)cc2OC(=O)c2ccc([N+](=O)[O-])cc2)C=C(OC)C1=O	32.8
CCOC(=O)C(C)c1c(C(=O)c2ccc(C)nc2)c2ccccc2n1C (stereo not drawn)	> 100

system: LOX IMVI melanoma; assay: DTP human tumour cell line panel, 48 h

SMILES	TGI [µM]
O=C(Cc1nc2ccccc2o1)C(=O)Nc1ccccc1C(F)(F)F	> 100
CN(C)CCNc1ccc2nnn3c4ccccc4c(=O)c1c23	3.72
COC1=CC(=Nc2c(Cl)cc(Cl)cc2OC(=O)c2ccc([N+](=O)[O-])cc2)C=C(OC)C1=O	5.67
CCOC(=O)C(C)c1c(C(=O)c2ccc(C)nc2)c2ccccc2n1C (stereo not drawn)	> 100

system: LXFL 529 NSCLC; assay: DTP human tumour cell line panel, 48 h

SMILES	TGI [µM]
O=C(Cc1nc2ccccc2o1)C(=O)Nc1ccccc1C(F)(F)F	> 100
CN(C)CCNc1ccc2nnn3c4ccccc4c(=O)c1c23	17.5
COC1=CC(=Nc2c(Cl)cc(Cl)cc2OC(=O)c2ccc([N+](=O)[O-])cc2)C=C(OC)C1=O	18.5
CCOC(=O)C(C)c1c(C(=O)c2ccc(C)nc2)c2ccccc2n1C (stereo not drawn)	> 100

system: M14 melanoma; assay: DTP human tumour cell line panel, 48 h

SMILES	TGI [µM]
O=C(Cc1nc2ccccc2o1)C(=O)Nc1ccccc1C(F)(F)F	> 100
CN(C)CCNc1ccc2nnn3c4ccccc4c(=O)c1c23	9.03
COC1=CC(=Nc2c(Cl)cc(Cl)cc2OC(=O)c2ccc([N+](=O)[O-])cc2)C=C(OC)C1=O	25.8
CCOC(=O)C(C)c1c(C(=O)c2ccc(C)nc2)c2ccccc2n1C (stereo not drawn)	> 100

system: M19-MEL melanoma; assay: DTP human tumour cell line panel, 48 h

SMILES	TGI [µM]
O=C(Cc1nc2ccccc2o1)C(=O)Nc1ccccc1C(F)(F)F	> 100
CN(C)CCNc1ccc2nnn3c4ccccc4c(=O)c1c23	9.42
COC1=CC(=Nc2c(Cl)cc(Cl)cc2OC(=O)c2ccc([N+](=O)[O-])cc2)C=C(OC)C1=O	10.8
CCOC(=O)C(C)c1c(C(=O)c2ccc(C)nc2)c2ccccc2n1C (stereo not drawn)	> 100

system: MALME-3M melanoma; assay: DTP human tumour cell line panel, 48 h

SMILES	TGI [µM]
O=C(Cc1nc2ccccc2o1)C(=O)Nc1ccccc1C(F)(F)F	> 100
CN(C)CCNc1ccc2nnn3c4ccccc4c(=O)c1c23	10.4
COC1=CC(=Nc2c(Cl)cc(Cl)cc2OC(=O)c2ccc([N+](=O)[O-])cc2)C=C(OC)C1=O	28.9
CCOC(=O)C(C)c1c(C(=O)c2ccc(C)nc2)c2ccccc2n1C (stereo not drawn)	> 100

system: MCF7 breast; assay: DTP human tumour cell line panel, 48 h

SMILES	TGI [µM]
CN(C)CCNc1ccc2nnn3c4ccccc4c(=O)c1c23	25.2

system: MDA-MB-231 breast; assay: DTP human tumour cell line panel, 48 h

SMILES	TGI [µM]
CN(C)CCNc1ccc2nnn3c4ccccc4c(=O)c1c23	15.3

system: MDA-MB-435; assay: DTP human tumour cell line panel, 48 h

SMILES	TGI [µM]
CN(C)CCNc1ccc2nnn3c4ccccc4c(=O)c1c23	13.8

system: MDA-N; assay: DTP human tumour cell line panel, 48 h

SMILES	TGI [µM]
CN(C)CCNc1ccc2nnn3c4ccccc4c(=O)c1c23	12.4

system: MOLT-4 leukemia; assay: DTP human tumour cell line panel, 48 h

SMILES	TGI [µM]
CN(C)CCNc1ccc2nnn3c4ccccc4c(=O)c1c23	21
COC1=CC(=Nc2c(Cl)cc(Cl)cc2OC(=O)c2ccc([N+](=O)[O-])cc2)C=C(OC)C1=O	26.7
CCOC(=O)C(C)c1c(C(=O)c2ccc(C)nc2)c2ccccc2n1C (stereo not drawn)	> 100
